Species: Rattus norvegicus
Experiment: Open TG-GATES - Regimen: Daily Repeat
Type: toxicity, organism-based, Sprague-Dawley
Design: regimen Daily Repeat, gender Male, age 6 weeks
Settings: in vivo, po, route gavage; for APTT / Bas / Eos / Fbg / Hb / Ht / Lym / MCH / MCHC / MCV / Mono / Neu / PT / Plat / RBC / Ret / WBC: tissue Blood; for KIDNEY_L / KIDNEY_R / KIDNEY_TOTAL: tissue Kidney; for LIVER: tissue Liver; for A/G / ALP / ALT / AST / BUN / CRE / Ca / Cl / DBIL / GLC / IP / K / LDH / Na / PL / RALB / TBIL / TC / TG / TP / gamma-GTP: tissue Plasma
[1] = 0 mg/kg, 72 h, dose level Control, time 3 day
[2] = 0 mg/kg, […], dose level Control, time 7 day
[3] = 0 mg/kg, […], dose level Control, time 14 day
[4] = 0 mg/kg, […], dose level Control, time 28 day
[5] = 20 mg/kg, 72 h, dose level Low, time 3 day
[6] = 20 mg/kg, […], dose level Low, time 7 day
[7] = 20 mg/kg, […], dose level Low, time 14 day
[8] = 20 mg/kg, […], dose level Low, time 28 day

## Cn1c(=O)c2[nH]cnc2n(C)c1=O.O [THEOPHYLLINE]
[1]
  TERMINAL_BW: 247 g
  APTT: 23.1 s
  Bas: 0%
  Eos: 0.8%
  Fbg: 314.4 mg/dL
  Hb: 13.2 g/dL
  Ht: 39.5%
  Lym: 79.4%
  MCH: 21.2 pg
  MCHC: 33.5%
  MCV: 63.2 fL
  Mono: 3.2%
  Neu: 15.2%
  PT: 15 s
  Plat: 114.7 x10_4/uL
  RBC: 625.4 x10_4/ul
  Ret: 7.3%
  WBC: 109 x10_2/uL
  KIDNEY_L: 1.1 g
  KIDNEY_R: 1.1 g
  KIDNEY_TOTAL: 2.2 g
  LIVER: 12.2 g
  A/G: 1.2
  ALP: 1800.8 IU/L
  ALT: 48.4 IU/L
  AST: 71.4 IU/L
  BUN: 17.6 mg/dL
  CRE: 0.2 mg/dL
  Ca: 10.7 mg/dL
  Cl: 105.8 meq/L
  DBIL: 0 mg/dL
  GLC: 203.8 mg/dL
  IP: 8.5 mg/dL
  K: 4.3 meq/L
  LDH: 183.6 IU/L
  Na: 141 meq/L
  PL: 156.6 mg/dL
  RALB: 3 g/dL
  TBIL: 0 mg/dL
  TC: 85 mg/dL
  TG: 96.2 mg/dL
  TP: 5.5 g/dL
  gamma-GTP: 1.6 IU/L
[2]
  TERMINAL_BW: 278.6 g
  APTT: 21.8 s
  Bas: 0%
  Eos: 1%
  Fbg: 305.4 mg/dL
  Hb: 13.9 g/dL
  Ht: 40.5%
  Lym: 77.8%
  MCH: 20.9 pg
  MCHC: 34.2%
  MCV: 61.2 fL
  Mono: 2.8%
  Neu: 17.4%
  PT: 15.8 s
  Plat: 112 x10_4/uL
  RBC: 662 x10_4/ul
  Ret: 6%
  WBC: 113.8 x10_2/uL
  KIDNEY_L: 1.2 g
  KIDNEY_R: 1.3 g
  KIDNEY_TOTAL: 2.5 g
  LIVER: 12.9 g
  A/G: 1.2
  ALP: 1566.8 IU/L
  ALT: 43.8 IU/L
  AST: 80.4 IU/L
  BUN: 20 mg/dL
  CRE: 0.2 mg/dL
  Ca: 10.3 mg/dL
  Cl: 106.6 meq/L
  DBIL: 0 mg/dL
  GLC: 212.2 mg/dL
  IP: 7.5 mg/dL
  K: 4.6 meq/L
  LDH: 253.2 IU/L
  Na: 141.4 meq/L
  PL: 145.2 mg/dL
  RALB: 3 g/dL
  TBIL: 0 mg/dL
  TC: 69.4 mg/dL
  TG: 106.2 mg/dL
  TP: 5.6 g/dL
  gamma-GTP: 1.8 IU/L
[3]
  TERMINAL_BW: 330.3 g
  APTT: 24.2 s
  Bas: 0%
  Eos: 0.8%
  Fbg: 324.6 mg/dL
  Hb: 14.5 g/dL
  Ht: 42.5%
  Lym: 79.2%
  MCH: 21 pg
  MCHC: 34.1%
  MCV: 61.5 fL
  Mono: 3%
  Neu: 15.2%
  PT: 15.6 s
  Plat: 114.6 x10_4/uL
  RBC: 691.8 x10_4/ul
  Ret: 4.4%
  WBC: 138.2 x10_2/uL
  KIDNEY_L: 1.3 g
  KIDNEY_R: 1.3 g
  KIDNEY_TOTAL: 2.7 g
  LIVER: 15.4 g
  A/G: 1.1
  ALP: 1434.6 IU/L
  ALT: 38.2 IU/L
  AST: 68.4 IU/L
  BUN: 18.6 mg/dL
  CRE: 0.2 mg/dL
  Ca: 10.3 mg/dL
  Cl: 107 meq/L
  DBIL: 0 mg/dL
  GLC: 188.2 mg/dL
  IP: 7.3 mg/dL
  K: 4.4 meq/L
  LDH: 184.4 IU/L
  Na: 142 meq/L
  PL: 149.2 mg/dL
  RALB: 3.1 g/dL
  TBIL: 0.004 mg/dL
  TC: 71.4 mg/dL
  TG: 135.4 mg/dL
  TP: 5.9 g/dL
  gamma-GTP: 2.6 IU/L
[4]
  TERMINAL_BW: 378.5 g
  APTT: 24.9 s
  Bas: 0%
  Eos: 1%
  Fbg: 303 mg/dL
  Hb: 14.8 g/dL
  Ht: 42.6%
  Lym: 80.2%
  MCH: 18.9 pg
  MCHC: 34.8%
  MCV: 54.6 fL
  Mono: 1.6%
  Neu: 15%
  PT: 16.2 s
  Plat: 98.8 x10_4/uL
  RBC: 783 x10_4/ul
  Ret: 2.7%
  WBC: 113.3 x10_2/uL
  KIDNEY_L: 1.4 g
  KIDNEY_R: 1.4 g
  KIDNEY_TOTAL: 2.8 g
  LIVER: 15.4 g
  A/G: 1
  ALP: 1140.2 IU/L
  ALT: 38.6 IU/L
  AST: 64.8 IU/L
  BUN: 18.2 mg/dL
  CRE: 0.2 mg/dL
  Ca: 10.3 mg/dL
  Cl: 106.4 meq/L
  DBIL: 0 mg/dL
  GLC: 204.6 mg/dL
  IP: 6.5 mg/dL
  K: 4.1 meq/L
  LDH: 132.2 IU/L
  Na: 142.4 meq/L
  PL: 140.6 mg/dL
  RALB: 3.1 g/dL
  TBIL: 0.01 mg/dL
  TC: 65 mg/dL
  TG: 145.6 mg/dL
  TP: 6.1 g/dL
  gamma-GTP: 2.8 IU/L
[5]
  TERMINAL_BW: 242.7 g
  APTT: 22.4 s
  Bas: 0%
  Eos: 1%
  Fbg: 305.4 mg/dL
  Hb: 13.4 g/dL
  Ht: 39.6%
  Lym: 76.6%
  MCH: 21.2 pg
  MCHC: 33.8%
  MCV: 62.6 fL
  Mono: 3.2%
  Neu: 18%
  PT: 15.5 s
  Plat: 119.5 x10_4/uL
  RBC: 632.4 x10_4/ul
  Ret: 5.9%
  WBC: 125.2 x10_2/uL
  KIDNEY_L: 1.1 g
  KIDNEY_R: 1.1 g
  KIDNEY_TOTAL: 2.1 g
  LIVER: 10.9 g
  A/G: 1.3
  ALP: 1574.4 IU/L
  ALT: 45.2 IU/L
  AST: 71.8 IU/L
  BUN: 15.4 mg/dL
  CRE: 0.2 mg/dL
  Ca: 10.6 mg/dL
  Cl: 106.8 meq/L
  DBIL: 0 mg/dL
  GLC: 194.8 mg/dL
  IP: 7.4 mg/dL
  K: 4.4 meq/L
  LDH: 167.2 IU/L
  Na: 142.4 meq/L
  PL: 132.6 mg/dL
  RALB: 3 g/dL
  TBIL: 0.004 mg/dL
  TC: 70 mg/dL
  TG: 97 mg/dL
  TP: 5.5 g/dL
  gamma-GTP: 1.6 IU/L
[6]
  TERMINAL_BW: 271.5 g
  APTT: 24 s
  Bas: 0%
  Eos: 1%
  Fbg: 312.6 mg/dL
  Hb: 14.2 g/dL
  Ht: 41.1%
  Lym: 80%
  MCH: 20.9 pg
  MCHC: 34.5%
  MCV: 60.5 fL
  Mono: 2.6%
  Neu: 14.4%
  PT: 15.4 s
  Plat: 111.8 x10_4/uL
  RBC: 679 x10_4/ul
  Ret: 5.3%
  WBC: 121.9 x10_2/uL
  KIDNEY_L: 1.1 g
  KIDNEY_R: 1.2 g
  KIDNEY_TOTAL: 2.3 g
  LIVER: 12.4 g
  A/G: 1.1
  ALP: 1498.6 IU/L
  ALT: 40 IU/L
  AST: 68.2 IU/L
  BUN: 19.2 mg/dL
  CRE: 0.2 mg/dL
  Ca: 10.3 mg/dL
  Cl: 106.2 meq/L
  DBIL: 0 mg/dL
  GLC: 185.4 mg/dL
  IP: 7.3 mg/dL
  K: 4.2 meq/L
  LDH: 184.6 IU/L
  Na: 142.2 meq/L
  PL: 150 mg/dL
  RALB: 3 g/dL
  TBIL: 0.004 mg/dL
  TC: 77.2 mg/dL
  TG: 106.2 mg/dL
  TP: 5.7 g/dL
  gamma-GTP: 1.8 IU/L
[7]
  TERMINAL_BW: 324.6 g
  APTT: 24.1 s
  Bas: 0%
  Eos: 1%
  Fbg: 333.4 mg/dL
  Hb: 14.4 g/dL
  Ht: 42.7%
  Lym: 80%
  MCH: 19.9 pg
  MCHC: 33.7%
  MCV: 59 fL
  Mono: 2.4%
  Neu: 14.6%
  PT: 15.3 s
  Plat: 110.9 x10_4/uL
  RBC: 724.8 x10_4/ul
  Ret: 4.9%
  WBC: 110 x10_2/uL
  KIDNEY_L: 1.3 g
  KIDNEY_R: 1.3 g
  KIDNEY_TOTAL: 2.6 g
  LIVER: 14.3 g
  A/G: 1.2
  ALP: 1256.2 IU/L
  ALT: 37 IU/L
  AST: 64 IU/L
  BUN: 17.8 mg/dL
  CRE: 0.2 mg/dL
  Ca: 10.3 mg/dL
  Cl: 106.4 meq/L
  DBIL: 0 mg/dL
  GLC: 177.6 mg/dL
  IP: 7.4 mg/dL
  K: 4.2 meq/L
  LDH: 140.8 IU/L
  Na: 141.8 meq/L
  PL: 152.2 mg/dL
  RALB: 3.1 g/dL
  TBIL: 0.008 mg/dL
  TC: 82.4 mg/dL
  TG: 92.4 mg/dL
  TP: 5.8 g/dL
  gamma-GTP: 2.6 IU/L
[8]
  TERMINAL_BW: 357.5 g
  APTT: 26.7 s
  Bas: 0%
  Eos: 1%
  Fbg: 333.2 mg/dL
  Hb: 15.4 g/dL
  Ht: 44.6%
  Lym: 83.6%
  MCH: 18.7 pg
  MCHC: 34.4%
  MCV: 54.4 fL
  Mono: 1.6%
  Neu: 12.8%
  PT: 15.8 s
  Plat: 108.7 x10_4/uL
  RBC: 820.8 x10_4/ul
  Ret: 2.5%
  WBC: 112.5 x10_2/uL
  KIDNEY_L: 1.3 g
  KIDNEY_R: 1.4 g
  KIDNEY_TOTAL: 2.8 g
  LIVER: 13.8 g
  A/G: 1.1
  ALP: 1031.2 IU/L
  ALT: 39.8 IU/L
  AST: 68.2 IU/L
  BUN: 16.6 mg/dL
  CRE: 0.2 mg/dL
  Ca: 10.1 mg/dL
  Cl: 107 meq/L
  DBIL: 0 mg/dL
  GLC: 192.2 mg/dL
  IP: 6.2 mg/dL
  K: 3.8 meq/L
  LDH: 134.6 IU/L
  Na: 143 meq/L
  PL: 137.6 mg/dL
  RALB: 3.2 g/dL
  TBIL: 0.016 mg/dL
  TC: 73.6 mg/dL
  TG: 97.6 mg/dL
  TP: 6.1 g/dL
  gamma-GTP: 2 IU/L
